Where two headings read alike, the source gives them in different places.
Tested on: cancer cell lines
Experiment: Cancer cell proliferation activity (CellTiterGlo, 72 h)
Type: cell-based
Conditions: 72 h, 72 h, read-out: IC50 cell proliferation
Outline: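 Cells seeded overnight at 37 °C, then dosed with compound at 0.1% final DMSO and incubated 72 h at 37 °C (5% or 10% CO2 by medium).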

Structure (SMILES): Nc1nc(F)nc2c1ncn2[C@@H]1O[C@H](CO)[C@@H](O)[C@@H]1O [compound 170, (2R,3S,4S,5R)-2-(6-amino-2-fluoro-9H-purin-9-yl)-5-(hydroxymethyl)tetrahydrofuran-3,4-diol]
- IC50 (5637 (bladder)): 2.4 µM
- IC50 (CLS439 (bladder)): 45.5 µM
- IC50 (HS729 (muscle)): 3.52 µM
- IC50 (J82 (bladder)): 19.4 µM
- IC50 (JAR (placenta)): 45.9 µM
- IC50 (MT3 (breast)): 2 µM
- IC50 (PANCI (pancreas)): 16.6 µM
- IC50 (PC3 (prostate)): 2.54 µM
- IC50 (RD (muscle)): 11.9 µM
- IC50 (T24 (bladder)): 5.89 µM
- IC50 (Homo sapiens, 22Rv1, 72 h, 22RV1 (prostate)): 79.5 µM
- IC50 (Homo sapiens, 786-0, 72 h, 786O (kidney)): 29.6 µM
- IC50 (Homo sapiens, A204, 72 h, A204 (muscle)): 0.53 µM
- IC50 (Homo sapiens, A549, 72 h, A549 (lung)): 8.86 µM
- IC50 (Homo sapiens, A673, 72 h, A673 (bone)): 10.8 µM
- IC50 (Homo sapiens, A2780, 72 h, A2780 (ovary)): 7.16 µM
- IC50 (Homo sapiens, A-375, 72 h, A375 (skin)): 9.75 µM
- IC50 (Homo sapiens, A-431, 72 h, A431 (skin)): 11.1 µM
- IC50 (Homo sapiens, ACHN, ACHN (kidney)): 12.7 µM
- IC50 (Homo sapiens, ASPC1, 72 h, ASPC1 (pancreas)): 7.85 µM
- IC50 (Homo sapiens, BT-20, 72 h, BT20 (breast)): 38.2 µM
- IC50 (Homo sapiens, BXPC-3, 72 h, BXPC3 (pancreas)): 6.87 µM
- IC50 (Homo sapiens, C-33-A, C33A (endometrial)): 9.56 µM
- IC50 (Homo sapiens, CAKI-1, 72 h, CAKI1 (kidney)): 2.46 µM
- IC50 (Homo sapiens, COLO 205, 72 h, COLO205 (colon)): 2.8 µM
- IC50 (Homo sapiens, COLO-678, 72 h, COLO678 (colon)): 21.8 µM
- IC50 (Homo sapiens, Ca-Ski, CASKI (endometrial)): 107 µM
- IC50 (Homo sapiens, Caco-2, 72 h, CACO2 (colon)): 49.2 µM
- IC50 (Homo sapiens, Calu-6, 72 h, CALU6 (lung)): 17.3 µM
- IC50 (Homo sapiens, DLD-1, 72 h, DLD1 (colon)): 11.4 µM
- IC50 (Homo sapiens, DU-145, 72 h, DU145 (prostate)): 5.44 µM
- IC50 (Homo sapiens, EFO-21, 72 h, EFO21 (ovary)): 7.34 µM
- IC50 (Homo sapiens, EJ-28, 72 h, EJ28 (bladder)): 10.4 µM
- IC50 (Homo sapiens, Granta-519, 72 h, GRANTA-519 (hematological)): 1.66 µM
- IC50 (Homo sapiens, HCT-15, 72 h, HCT15 (colon)): 12.4 µM
- IC50 (Homo sapiens, HCT-116, 72 h, HCT116 (colon)): 5.26 µM
- IC50 (Homo sapiens, HEK293, 72 h, HEK293 (kidney)): 35.2 µM
- IC50 (Homo sapiens, HL-60, 72 h, HL-60 (hematological)): 2.05 µM
- IC50 (Homo sapiens, HT-29, 72 h, HT29 (colon)): 18.4 µM
- IC50 (Homo sapiens, HT-1080, 72 h, HT1080 (connective tissue)): 4.09 µM
- IC50 (Homo sapiens, HeLa, HELA (endometrial)): 6.72 µM
- IC50 (Homo sapiens, HepG2, 72 h, HEPG2 (liver)): 15.3 µM
- IC50 (Homo sapiens, Hs-578T, HS578T (breast)): 36.6 µM
- IC50 (Homo sapiens, IGROV-1, 72 h, IGROV1 (ovary)): 13.6 µM
- IC50 (Homo sapiens, IMR-90, 72 h, IMR90 (lung)): 11.8 µM
- IC50 (Homo sapiens, JEG-3, 72 h, JEG3 (placenta)): 56.8 µM
- IC50 (Homo sapiens, JIMT-1, 72 h, JIMT1 (breast)): 1.66 µM
- IC50 (Homo sapiens, K562, 72 h, K-562 (hematological)): 41.8 µM
- IC50 (Homo sapiens, Kasumi 1, 72 h, KASUMI-1 (hematological)): 0.55 µM
- IC50 (Homo sapiens, L-363, 72 h, L-363 (hematological)): 33 µM
- IC50 (Homo sapiens, LoVo, LOVO (colon)): 9.73 µM
- IC50 (Homo sapiens, MCF7, 72 h, MCF7 (breast)): 27.2 µM
- IC50 (Homo sapiens, MDA-MB-231, 72 h, MDAMB231 (breast)): 2.88 µM
- IC50 (Homo sapiens, MDA-MB-435, 72 h, MDAMB435 (skin)): 14.2 µM
- IC50 (Homo sapiens, MDA-MB-436, 72 h, MDAMB436 (breast)): 3.35 µM
- IC50 (Homo sapiens, MDA-MB-468, 72 h, MDAMB468 (breast)): 23.6 µM
- IC50 (Homo sapiens, MG-63, 72 h, MG63 (bone)): 15.5 µM
- IC50 (Homo sapiens, MHH-ES-1, 72 h, MHHES1 (bone)): 5.05 µM
- IC50 (Homo sapiens, MIA PaCa-2, 72 h, MIAPACA2 (pancreas)): 35.4 µM
- IC50 (Homo sapiens, MINO, MINO (hematological)): 0.61 µM
- IC50 (Homo sapiens, MV4-11, 72 h, MV4-11 (hematological)): 5.77 µM
- IC50 (Homo sapiens, NCI-H23, 72 h, NCI-H23 (lung)): 8.19 µM
- IC50 (Homo sapiens, NCI-H82, 72 h, NCIH82 (lung)): 21.3 µM
- IC50 (Homo sapiens, NCI-H292, 72 h, NCIH292 (lung)): 8.01 µM
- IC50 (Homo sapiens, NCI-H460, 72 h, NCIH460 (lung)): 32.5 µM
- IC50 (Homo sapiens, OVCAR-3, 72 h, OVCAR3 (ovary)): 1.13 µM
- IC50 (Homo sapiens, OVCAR-4, 72 h, OVCAR4 (ovary)): 16.3 µM
- IC50 (Homo sapiens, PLC-PRF-5, 72 h, PLCPRF5 (liver)): 20.1 µM
- IC50 (Homo sapiens, Panc1005, 72 h, PANC1005 (pancreas)): 5.7 µM
- IC50 (Homo sapiens, Ramos, RAMOS (hematological)): 5.1 µM
- IC50 (Homo sapiens, SAOS-2, 72 h, SAOS2 (bone)): 0.45 µM
- IC50 (Homo sapiens, SF-268, 72 h, SF268 (brain)): 16.3 µM
- IC50 (Homo sapiens, SF-295, 72 h, SF295 (brain)): 86.5 µM
- IC50 (Homo sapiens, SK-BR-3, 72 h, SKBR3 (breast)): 1.58 µM
- IC50 (Homo sapiens, SK-HEP1, 72 h, SKHEP1 (liver)): 5.36 µM
- IC50 (Homo sapiens, SK-LMS-1, 72 h, SKLMS1 (uterus)): 44.3 µM
- IC50 (Homo sapiens, SK-MEL-5, 72 h, SKMEL5 (skin; SKMELS [sic] in Table 9E)): 15.9 µM
- IC50 (Homo sapiens, SK-MEL-28, 72 h, SKMEL28 (skin)): 11.1 µM
- IC50 (Homo sapiens, SK-N-AS, SKNAS (brain)): 29.5 µM
- IC50 (Homo sapiens, SK-N-SH, SKNSH (brain)): 22.2 µM
- IC50 (Homo sapiens, SK-OV-3, 72 h, SKOV3 (ovary)): 4.22 µM
- IC50 (Homo sapiens, SNB-75, 72 h, SNB75 (brain)): 50.6 µM
- IC50 (Homo sapiens, SU-DHL10, 72 h, SU-DHL-10 (hematological)): 5.61 µM
- IC50 (Homo sapiens, SU-DHL-6, 72 h, SU-DHL-6 (hematological)): 38.6 µM
- IC50 (Homo sapiens, SW-620, 72 h, SW620 (colon)): 17.4 µM
- IC50 (Homo sapiens, TE-671, 72 h, TE671 (muscle)): 11.1 µM
- IC50 (Homo sapiens, THP-1, 72 h, THP-1 (hematological)): 5.86 µM
- IC50 (Homo sapiens, U2OS, U20S (bone; U2OS in Table 9E)): 13.8 µM
- IC50 (Homo sapiens, U-87 MG, U87MG (brain)): 5.59 µM
- IC50 (Homo sapiens, UMUC3, 72 h, UMUC3 (bladder)): 21.6 µM
- IC50 (Homo sapiens, UO-31, 72 h, UO31 (kidney)): 7.43 µM
- IC50 (Homo sapiens, WSU-NHL, WSU-NHL (hematological)): 1.91 µM
- IC50 (NCI-H358M, NCIH358M (lung)): 0.29 µM
- IC50 (PBMC, PBMC (hematological)): 0.29 µM
- IC50 (RD-ES, RDES (bone)): 35.3 µM

Reference: patent US20250215039A1, “NUCLEOSIDES FOR TREATING CANCER” (PRIMEFOUR THERAPEUTICS, INC., priority 2022, published 2025)
